The assay has as its system CEM cells HIV-1 protection, formazan growth assay. Put plainly: NCI AIDS Antiviral Assay. Conditions: for IC50: measured here: growth of uninfected CEM cells. Summed up:
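Human CEM cells, uninfected and HIV-1-infected, exposed to five drug concentrations; growth measured by soluble formazan assay and scored as percent protection from infection, with protecting compounds retested.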

Each structure is given as a SMILES string. Calls of active or inactive are those of the source.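 How the source made its calls: active means compounds giving half or more protection of infected cells from virus-caused growth loss, again on retest; inactive means the rest.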 Bounds are passed on as bounds.

Turning to `CC(C)C1=CC23CCC4C(C)(C(=O)O)CCCC4(C)C2CC1C1C(=O)N(CCCCCCN2C(=O)C4C5CC6C7(C)CCCC(C)(C(=O)O)C7CCC6(C=C5C(C)C)C4C2=O)C(=O)C13` (stereo not given), the EC50 is > 269 µM and the IC50 turned out to be 7.41 µM.
`CCc1cccc(C(C)C)c1NC(=O)C(=O)C(CC(=O)Nc1ccc(Cl)c(Cl)c1)C(=O)OC` (stereo not given): the EC50 was > 10.7 µM and the IC50 is > 10.7 µM.
On to `CN1CCCCCC(=N\O)/C(=N/O)CCCCC1`, for which the EC50 was > 977 µM and the half-maximal inhibitory concentration (IC50) was > 977 µM.
`CN1CCN2c3ccccc3CC(C#N)(C#N)C2C1` (stereo not given): the outcome was inactive.
On to `C1=CN2CCCN3C=CC=c4ccc(c2c43)=C1`, for which the EC50 is > 200 µM and the 50% inhibitory concentration (IC50) turned out to be 110 µM.
On the same counts, the results for `COc1ccc(/C=C/c2cnc3ccccc3n2)cc1OC` are > 200 µM and 155 µM.
As for `O=c1c2ccccc2c2c1c1c3ccccc3c(=O)c1c1c3ccccc3c(=O)c21`, the EC50 was > 200 µM and the concentration for half-maximal inhibition (IC50) was > 200 µM.
On to `c1ccc(SC2(Sc3ccccc3)CCCC2)cc1`, for which the result was inactive.
For the molecule `CCOC(=O)c1[nH]n(-c2ccccc2)c(=O)c1/C=N/C(=S)Nc1ccccc1OC`, the EC50 was > 200 µM and the concentration for half-maximal inhibition (IC50) is 93.3 µM.
With `CC(C)=CC1CC(C)C2(CCC3(C)CC4C5/C(=C\CC32)C(=O)OC5CC4(C)O)O1` (stereo not given), the EC50 was > 2 µM and the 50% inhibitory concentration (IC50) came out at 0.398 µM.
On the same counts, the results for `COc1cccc(NC(=O)CC(=O)NN2C(=O)/C(=C/c3ccc(N(CCC#N)CCC#N)cc3)N=C2c2cc([N+](=O)[O-])ccc2Cl)c1` are > 11 µM and 7.24 µM.
For `CCOC(=O)CCNC(=O)c1ccccc1SC(=O)CCCC[n+]1ccccc1`, in that order: > 2 µM and 1.51 µM.
Turning to `NP(N)(=O)NC(=O)c1ccc(F)cc1`, the EC50 is > 200 µM and the IC50 is > 200 µM.
Turning to `CCOC(=O)/C=C(\C)NCCSSCCN/C(C)=C/C(=O)OCC`, the EC50 is > 200 µM and the IC50 was found to be 50.1 µM.
On the same counts, the results for `N=C(N)c1ccc(OCCCOc2ccc(C(=N)N)cc2)cc1` are > 200 µM and 17 µM.
On to `CNC(=O)O/N=C(C)/C(C)=N/OC(=O)NC`, for which the result was inactive.
`CCNCC(O)c1ccc(N)c([N+](=O)[O-])c1` (stereo not given): the EC50 was > 200 µM and the IC50 is > 200 µM.
`O=c1cc(-c2ccc(O)cc2)oc2cc(O[C@@H]3O[C@H](CO)[C@@H](O)[C@H](O)[C@H]3O)cc(O)c12`: the EC50 was > 200 µM and the IC50 was determined as 4.57 µM.
On to `CC(=O)C(C(c1ccccc1)N1CCCc2ccccc21)N1CCOCC1` (stereo not given), for which the EC50 was > 200 µM and the IC50 was found to be 61.7 µM.
For `CCN(CC)Cc1nc(C2CCC([N+](=O)[O-])O2)no1` (stereo not given), in that order: > 200 µM and 72.4 µM.
On the same counts, the results for `Cc1oc(NC(=O)C(=O)O)c(C#N)c1C` are > 200 µM and > 200 µM.
On the same counts, the results for `COc1cc(/C=C2\CCc3ccccc3C2=O)ccc1O` are > 200 µM and 9.33 µM.
Take `CN1C(=O)C2CCC1n1c(=O)n(-c3ccccc3)c(=O)n12` (stereo not given): the outcome was inactive.
For the molecule `CC(=O)c1c(P(=O)(OC(C)C)OC(C)C)nn(-c2ccc([N+](=O)[O-])cc2)c1C`, the EC50 was > 166 µM and the half-inhibitory concentration (IC50) is > 166 µM.
Turning to `CCC12OCC(C)(C)N1OC(=O)N2c1ccccc1` (stereo not given), the EC50 is > 200 µM and the IC50 was > 200 µM.
In the case of `Cc1cc2c(cc1Cl)SC(NNC(=O)c1ccccc1)=NS2(=O)=O`, the EC50 was 123 µM and the half-maximal inhibitory concentration (IC50) was 132 µM.
For `COc1cc(C2c3cc4c(cc3C(O)[C@H]3COC(=O)[C@@H]23)OCO4)cc(OC)c1O` (stereo not given in full), in that order: > 200 µM and 1.12 µM.
On the same counts, the results for `CCC(=O)N(O)C(C)(C)C` are > 1740 µM and > 1740 µM.
Take `CSc1nc2c(nc(N)n2C2OCC(O)C(O)C2O)c(=O)[nH]1` (stereo not given): the result was inactive.
As for `Clc1cc2nc(C3CCCCO3)[nH]c2cc1Cl` (stereo not given), the EC50 is > 200 µM and the half-inhibitory concentration (IC50) was found to be 10.2 µM.
`CCOC(=O)C(=O)C=P(c1ccccc1)(c1ccccc1)c1ccccc1`: the concentration giving a half-maximal response (EC50) is 18.6 µM and the concentration for half-maximal inhibition (IC50) was 35.5 µM.
For `Cc1nn2c(=O)c3c([N+](=O)[O-])c(C)nn3c(=O)c2c1[N+](=O)[O-]`, in that order: > 562 µM and > 562 µM.
On the same counts, the results for `COC(=O)Cc1c(-c2c(CC(=O)OC)c3ccccc3n2C2OC(COC3OC(COC(C)=O)C(OC(C)=O)C(OC(C)=O)C3OC(C)=O)C(O)C(O)C2O)[nH]c2ccccc12` (stereo not given) are 105 µM and 151 µM.
On the same counts, the results for `O=C1OCCC1C(O)C1c2ccccc2-c2ccccc21` (stereo not given) are > 339 µM and > 339 µM.
For the molecule `CC(=O)NNc1nc(C)c(C(=O)/C=C/c2cccc([N+](=O)[O-])c2)s1`, the EC50 was 70.8 µM and the IC50 amounted to 75.9 µM.
As for `CC(=O)O[C@H]1CC[C@@]2(C)C(=CC[C@H]3C(CC#N)[C@@](C)(C#N)CCC32)C1` (stereo not given in full), the outcome was inactive.
Turning to `Fc1ccc(CSc2cnnc(SCc3ccc(F)cc3)c2SCc2ccc(F)cc2)cc1`, the EC50 is > 200 µM and the IC50 stood at 39.8 µM.
Regarding `COc1c(C)c(C/C=C(\C)CCCCO[Si](C(C)C)(C(C)C)C(C)C)c(OC)c2ccccc12`, the EC50 was > 200 µM and the 50% inhibitory concentration (IC50) turned out to be 53.7 µM.
For the molecule `CCCCC1CC(c2cccc([N+](=O)[O-])c2)=NO1` (stereo not given), the EC50 is > 15.1 µM and the IC50 was > 15.1 µM.
With `CCOP(=O)(CC(=O)C1CC1)OCC`, the result was inactive.
For the molecule `CCN1C[C@]2(COC)CCC(OC)C34[C@@H]5C[C@@H]6C(O)[C@@H]5[C@](O)(C[C@@H]6OC)[C@@H](C[C@@H]32)[C@H]14` (stereo not given in full), the outcome was inactive.
With `CCCC(C(=O)OCCN1CCCC12CCCCC2)C1CCCC1` (stereo not given), the EC50 was > 200 µM and the IC50 amounted to 11 µM.
For `CC1=NN(C(=O)CC(=O)Nc2ccc(Cl)cc2)C(=O)C1N=Nc1ccc(C(=O)O)cc1` (stereo not given), the EC50 is > 200 µM and the IC50 came to 87.1 µM.
For the molecule `O=C(O)c1c(Cl)c(Cl)c(Cl)c(Cl)c1-c1c2ccc(=O)c(O)c-2oc2c(O)c(O)ccc12`, the EC50 is > 83.2 µM and the concentration for half-maximal inhibition (IC50) is 51.3 µM.
For `COC1=NS(=O)(=O)C2CCCCCCC2O1` (stereo not given), in that order: > 1000 µM and > 1000 µM.
For the molecule `O=[N+]([O-])/C=C/COCc1cc2c(cc1Br)OCO2`, the EC50 was > 200 µM and the half-maximal inhibitory concentration (IC50) amounted to 9.33 µM.
For `O=C1CSC(c2c[nH]c3ccccc23)N1c1ccc(Cl)cc1` (stereo not given), in that order: > 110 µM and > 110 µM.
For `O=C(c1nc2ccccc2[nH]c1=O)C(O)c1ccccc1` (stereo not given), in that order: > 468 µM and 151 µM.
On the same counts, the results for `O=C1/C(=C/c2cccc(O)c2)COc2ccccc21` are > 123 µM and 4.27 µM.
`Cc1ccc(NC(=O)CC2C(=O)Nc3ccccc3S2=O)c(C)c1` (stereo not given): the EC50 was > 15.1 µM and the IC50 was > 15.1 µM.
For the molecule `COP(=O)(OC)c1ccc(NCc2cc(O)ccc2O)cc1`, the EC50 was > 55 µM and the 50% inhibitory concentration (IC50) was determined as 7.94 µM.
In the case of `COc1ccccc1N=NC1=C2Nc3ccccc3N=C1N(c1ccccc1OC)C(=S)N2c1ccccc1C`, the result was inactive.

As a reminder, the EC50 is the concentration that produces a half-maximal response. As usually defined, the IC50 is the midpoint of a concentration-inhibition curve. Read a low IC50 as inhibition by little substance.
